Data published in patent US20230398110A1, “COMPOSITIONS AND METHODS FOR TREATING NON-ALCOHOLIC STEATOHEPATITIS” (ASCENTAGE PHARMA (SUZHOU) CO., LTD., priority 2020, published 2023).

Tests used:
[1] = system: rats with DEN-HFD-CHOL induced non-alcoholic steatohepatitis; test: DEN-HFD-CHOL induced NASH rat model, liver histology (NAS score, fibrosis); assay type: in vivo; conditions: 42 days; for NAS score (FIG. 3B) / ballooning (FIG. 3B) / steatosis, lobular inflammation and hepatocellular ballooning (HE-staining of liver tissue, FIG. 3A): Compound 1 10 and 30 mg/kg, GFT505 30 mg/kg
From the text: Male SD rats, with an age of 10 days, were purchased from Vital River Co., Ltd (Beijing).
The rats were given a one-time intraperitoneal injection of diethylnitrosamine (DEN) two weeks after birth, and continued breast milk feeding for two weeks.
After four weeks, a total of 56 male rats were selected and divided into 7 groups according to animal weight. The rats were started on a high-fat, high-cholesterol diet (HFD-CHOL), with a feeding cycle of 12 weeks. Before intraperitoneal injection of DEN, 5 male rats were randomly selected for parallel feeding as a control cohort, which were fed a standard diet and not injected with DEN.
After 7 weeks of HFD-CHOL diet feeding, the animals were randomized and treatment with vehicle or the indicated compound was started. The test article administration and the animal numbers in each group are shown in the following experimental design Table 5.
The body weight of animals was measured at the day of the last administration (the end of the test). After the animal were fasted for 6 hours, all animals were euthanatized to collect blood and liver samples for biochemical and histological analysis.
Liver tissue from animals in each group were analyzed for NAS scores, the unweighted sum of the steatosis (0-3), lobular inflammation (0-3) and hepatocellular ballooning (0-2) scores, after HE-staining, and analyzed for liver fibrosis score (0-4) after Sirius red staining.
Liver tissue from animals in each group were analyzed for NAS scores using the methods disclosed above in Example 16. Specifically, the scores assessed were: • 1) the unweighted sum of the steatosis (0-3); • 2) lobular inflammation (0-3); • 3) hepatocellular ballooning (0-2); and • 4) liver fibrosis score (0-4), after Sirius red staining.
(§1) Prism, version 6, (GraphPad Software Inc., San Diego, CA) was used for all statistical analysis and for graphic presentation.
After drug treatment for 42 days, animals were euthanatized to collect liver samples for pathological analysis.

[2] = system: C57BL/6J mice induced with high-fat diet (HFD) and CCl4; test: HFD/CCl4 NASH mouse model, liver histology (NAS score, fibrosis); assay type: in vivo
Description: Male C57BL/6J mice with an age of 18 weeks were purchased from GemPharmatech Co., Ltd (Nanjing, Jiangsu). Mice were first fed with high-fat diet (HFD) for 11 weeks to induced obesity. Carbon tetrachloride (25% CCl4, 0.5 μl/g) was then intraperitoneally injected twice weekly for 4 consecutive weeks, to induce liver damages, leading to inflammation, cell death and fibrosis. The day of the first carbon tetrachloride injection was dated as day 0. At day 7, the animals were randomized and treatment started. The test article administration and the animal numbers in each group are shown in the following experimental design Table 3.
All animals were euthanatized at day 28 to collect blood and liver samples for biochemical and histological analysis.
Liver tissue from animals in each group were analyzed for NAS scores.
Specifically, the scores assessed were: • 1) the unweighted sum of the steatosis (0-3); • 2) lobular inflammation (0-3); • 3) hepatocellular ballooning (0-2); and • 4) liver fibrosis score (0-4), after Sirius red staining.
Liver tissues of each group of animals were taken, and NAS scores were analyzed by hematoxylin-eosin (HE) staining, and liver fibrosis was analyzed by Sirius red staining.
After staining, the NAS scores of the prepared samples were evaluated. In hematoxylin-eosin stained sections, NAS scores were evaluated according to the degree of steatosis, inflammatory cell infiltration and […].
After staining, fibrosis of the liver was additionally evaluated. All sections stained with Sirius Red were scanned by an Aperio VERSA 200 Brightfield & Fluorescenc slice scanner. Two fields were randomly selected under a 5×field of view. The two fields covered 85% of the liver tissue area. Quantitative analysis to calculate the area of fibrosis deposition in the slices was performed.
as §1
After drug treatment for 21 days, animals were euthanatized to collect liver samples for pathological analysis.

Mcl-1 = Mcl-1 (Homo sapiens, UniProt Q07820); test: FP saturation binding of fluorescent probe to Mcl-1; conditions: 2 nM probe, read-out: Kd of Flu-BID to Mcl-1
Sequence of Mcl-1 (Q07820 whole entry): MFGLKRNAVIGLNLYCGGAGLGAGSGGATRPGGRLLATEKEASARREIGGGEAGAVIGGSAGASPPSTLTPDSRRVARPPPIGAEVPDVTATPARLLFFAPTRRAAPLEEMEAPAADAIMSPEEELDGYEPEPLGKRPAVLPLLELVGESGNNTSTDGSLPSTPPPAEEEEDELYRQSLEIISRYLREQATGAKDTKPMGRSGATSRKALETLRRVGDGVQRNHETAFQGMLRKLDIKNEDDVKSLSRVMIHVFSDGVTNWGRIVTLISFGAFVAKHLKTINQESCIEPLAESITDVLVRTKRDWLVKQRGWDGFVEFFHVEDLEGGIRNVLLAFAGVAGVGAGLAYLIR
Description: Fluorescence polarization values were measured using an Infinite M-1000 plate reader (Tecan U.S., Research Triangle Park, N.C.) in Microfluor 96-well, black, round-bottom plates (Thermo Scientific). […] Plates were mixed and incubated at room temperature for 1 hour with gentle shaking to assure equilibrium. […] Equilibrium dissociation constants (Kd) were then calculated by fitting the sigmoidal dose-dependent FP increases as a function of protein concentrations using Graphpad Prism 5.0 software (Graphpad Software, San Diego, Calif.).

[3] = Compound 1 50 mg/kg qd p.o., 21 days
[4] = Compound 1 10 and 30 mg/kg vs GFT505 30 mg/kg, qd p.o.

Molecule | NAS score (FIG. 3B) ([1]; qd p.o.) | ballooning (FIG. 3B) ([1]; qd p.o.) | steatosis, lobular inflammation and hepatocellular ballooning (HE-staining of liver tissue, FIG. 3A) ([1]; qd p.o.) | fibrosis (Sirius red staining, fibrosis score, FIG. 2A/2B) ([2]; Compound 1 50 mg/kg qd p.o. single agent, in comparison to OCA) | ballooning (NAS score analysis, FIG. 1B) [2, 3] | steatosis (NAS score analysis, FIG. 1B) [2, 3] | steatosis, lobular inflammation and hepatocellular ballooning (HE-staining of liver tissue, FIG. 1A) ([2]; Compound 1 50 mg/kg qd p.o., OCA 30 mg/kg qd p.o., alone or combined, 21 days) | anti-inflammation effect compared with OCA alone ([2]; Compound 1 50 mg/kg vs OCA 30 mg/kg, qd p.o., 21 days) | inflammation (NAS score analysis, FIG. 1B) ([2]; Compound 1 50 mg/kg, OCA 30 mg/kg, qd p.o., 21 days) | fibrosis (Sirius red staining, fibrosis score, FIG. 4A/4B) ([1]; Compound 1 10 and 30 mg/kg qd p.o.) | anti-inflammation effects compared with GFT505 [1, 4] | effects on steatosis compared with GFT505 [1, 4] | Kd (Mcl-1) [nM]
CSc1ccc(C(=O)/C=C/c2cc(C)c(OC(C)(C)C(=O)O)c(C)c2)cc1 [GFT505, elafibranor, reference compound] | significantly reduced | completely abolished | alleviated |  |  |  |  |  |  |  |  |  | 
O=C(NS(=O)(=O)c1ccc(NC[C@H]2COCCO2)c([N+](=O)[O-])c1)c1ccc(N2CCN(CC3=C(c4ccc(Cl)cc4)CC4(CCC4)CC3)CC2)cc1Oc1cnc2[nH]ccc2c1 [Compound 1, (S)-N-((4-(((1,4-dioxan-2-yl)methyl)amino)-3-nitrophenyl)sulfonyl)-2-((1H-pyrrolo[2,3-b]pyridin-5-yl)oxy)-4-(4-((6-(4-chlorophenyl)spiro[3.5]non-6-en-7-yl)methyl)piperazin-1-yl)benzamide] | significantly reduced | completely abolished | alleviated | modest effect | modest effects | reduced | alleviated | better anti-inflammation effect than OCA alone | reduced | modest alleviation | improved anti-inflammation effects | more modest effects | 
Flu-BID: Fluorescein labeled BID (79-99) peptide, fluorescent probe in FP assay for Mcl-1 |  |  |  |  |  |  |  |  |  |  |  |  | 6.9 ± 0.9
